Source: patent publication US9403786B2, “Anti-inflammatory compounds” (University of South Australia, priority 2009, dated 2016)

Test system: TPA-induced mouse ear oedema
Experiment: TPA-induced mouse ear oedema model
Type: in vivo, Male Balb/C mice
Method: Anti-inflammatory activity was measured in the mouse ear oedema model using 12-O-tetradeconoylphorbol-13-acetate (TPA) (Sigma) or croton oil as the inducer of inflammation (Sanchez, T and Moreno, J 1999, Role of leukocyte influx in tissue prostaglandin H synthase-2 overexpression induced by phorbol ester and arachidonic acid in skin, Biochemical Pharmacology, 58, 877-879.). Male Balb/C mice 7-9 weeks old and weighing 20-25 g were used. Mice were housed in cages at constant room temperature (20±2° C.) with access to food (standard rat/mouse pellet) and water ad libitum. A 12 hr day/night cycle was maintained in the animal holding facility (Reid building animal house, University of South Australia) and all experiments were carried out during the day phase.
Baseline measurements of ear thickness were measured using a digital micrometer (±0.001 mm, Mitutoyo, Japan) prior to the experiment. TPA (2.5 μg/ear), which was dissolved in acetone, was then applied in a volume of 20 μL to the inner surface of the right ear and 20 μL of acetone to the left ear as control. After thirty minutes the test samples, which were dissolved in 80% ethanol, were applied to the inner surface of the right ear and 80% ethanol on the left ear to the respective treatment groups. Betamethasone 17,21-dipropionate (Sigma) (0.9 μmol/ear) was used as a positive control. Multi-dose experiments were conducted over the range 0.005-1.83 μmol/ear. At 2 h, 4 h, 6 h, 8 h, 24 h and 48 h after the application, the ear thicknesses were measured using a digital micrometer. A non-treated control group to which only croton oil or TPA were applied was used as a measure of maximum inflammation achieved with percent inhibition of inflammation of test sample being calculated relative to this group. Following completion of the experiment, mice were euthanized by inhalation of isoflurane followed by cervical dislocation.

Substance: 15,16-epoxy-8(α)-(benzoyloxy)methyl-cleroda-3,13(16), 14-trien-18-oic acid [Compound E]
- anti-inflammatory activity (TPA-induced mouse ear oedema model): significant anti-inflammatory activity
- maximum inhibition (dose of 0.91 μmol): 76.4±7.3%
- effect at lower concentrations (doses lower than 1.83 μmol/ear): no observable effect
- activity when compared to TPA only control (highest dose tested 1.83 μmol/ear, p<0.05): some significant level of activity
